Where “and” joins values, the source holds several entries; their conditions need not be identical. Equal entries are not always repeated.
What was measured:
[1] = test system: inactive ulcerative colitis; assay: Double-blind maintenance treatment with SAZ or placebo after rise of PGE2: relapse/remission; type: in vivo, patients
Excerpt: Patients fulfilling the following entry criteria were candidates for the study: (a) proven UC. […] Patients were considered in remission when symptom-free (i.e., stool frequency 2 x a day, without discharge of blood, pus, or mucus from the rectum), with normal sigmoidoscopic appearance, and with no significant inflammation on rectal biopsy.
(§1) Equilibrium in vivo dialysis of faeces as well as equilibrium in vivo dialysis of rectum were done in consenting patients fulfilling the entry criteria. Subsequently, SAZ treatment was stopped and the patients were observed free of medication. Evaluation of clinical disease activity, in addition to sigmoidoscopy with rectal biopsies for assessing endoscopic and histologic disease activity, were done at scheduled visits after two weeks, after two, six, and 12 months, and in-between, if indicated by recurrence of colitic symptoms. A relapse was defined as a recurrence of colitic symptoms accompanied by endoscopic signs of inflammation. If a relapse occurred the patient was withdrawn. At the scheduled visits also in vivo dialysis measurements were carried out. […]

PGE2 [2] = assay: Equilibrium in vivo dialysis of faeces with radioimmunoassay of PGE2 (SAZ withdrawal study); settings: individual patients randomized to SAZ (tablets 0.5 g; 2 tablets b.i.d.) after raised PGE2; first figure of the cell
Excerpt: as §1
Equilibrium in vivo dialysis of faeces was carried out as previously described, by pooling the contents of five swallowed dialysis bags following their intestinal transit (faecal dialysate). These dialysates were analyzed for concentrations of PGE2 (faecal PGE2).
(§2) Prostaglandin E2 was measured as previously described by a radioimmunological method validated by gas chromatograghy mass spectrometry. […]

PGE2 [3] = assay: Equilibrium in vivo dialysis of rectum with radioimmunoassay of PGE2 (enema trial); design: species or system patients; settings: median, enema groups irrespective of SAZ (+/-), SAZ line = no enema, with SAZ maintenance
Experimental: The study was carried out as a block-randomized, double-blind trial. Before entry, clinical disease activity was assessed, and equilibrium in vivo dialysis of rectum was performed before the assessment of endoscopic and histologic disease activity. […] Primary stratification was done for patients already on maintenance treatment with SAZ. At day 15 the equilibrium in vivo dialysis of rectum was repeated, and clinical, endoscopic, and histologic activities were reassessed. Patients in complete clinical and endoscopic remission discontinued treatment with enemas, whereas the remainder continued therapy for another 14 days. In all cases equilibrium in vivo dialysis of rectum and assessment of disease activity were repeated at day 29. Withdrawal criteria included intolerance to treatment or deterioration (severe disease, C3) requiring systemic glucocorticoids.
In vivo dialysis of rectum was performed after insertion of a 12-cm-long dialysis bag (volume 4 ml; Visking seamless cellulose tubing 8/32 filled with Rheomacrodex@; Pharmacia, Uppsala, Sweden) containing 10% dextran (mean mol wt 40,000) in saline into the emptied rectum. To obtain equilibrium with the fluid covering the surface of rectal mucosa, the dialysis bag was left for 4 h before its contents were emptied into a test tube, which was stored immediately at -20°C (rectal dialysate) for analysis within 2 wk.
Prostaglandin E2 was measured as previously described in detail (K. Bukhave, J. Rask-Madsen J, 'Prostaglandin E2 in jejunal fluids and its potential diagnostic value for selecting patients with indomethacin-sensitive diarrhoea', 1981 European Journal of Clinical Investigation, 11:191-7) by a radioimmunologic method validated by gas chromatography-mass spectrometry (K. Bukhave, K Green, J. Rask-Madsen, 'Comparison of radioimmunological determinations with gas chromatography mass spectrometry dosage', 1983 Biomedical Mass Spectrometry, 10:265-8). The method included purification by extraction with ethylacetate/cyclo- hexane (1:1) and chromatography on microcolumns of Sephadex LH-20 (Pharmacia AB, Sweden) before performing the radioimmunoassay itself on the eluate fraction containing PGE2.

ulcerative colitis = settings: background statement; cited from earlier work
PGE2 [4] = assay: Equilibrium in vivo dialysis of rectum with radioimmunoassay of PGE2 (SAZ withdrawal study); design: species or system patients
Excerpt: as §1
Equilibrium in vivo dialysis of rectum was performed after insertion of a 12-cm-long dialysis bag into the emptied rectum as described above. The bag was left for four hours when it was removed and its contents (rectal dialysate) were analyzed for concentrations of PGE2 (rectal PGE2).
as §2

O=C(O)c1cc(/N=N/c2ccc(S(=O)(=O)Nc3ccccn3)cc2)ccc1O [SAZ, sulphasalazine]
remission reinstated in relapsing patients by resuming SAZ alone ([1]; SAZ 2-3 g/day orally, 14 relapsing patients): seven cases
relapse within the six-month treatment period ([1]; SAZ 2 g/day group n=6, placebo four of five, p<0.05, Fisher's exact test): none of the six patients
Fecal PGE2 levels 6 months after R (PGE2 [2]): 0.20 ng/ml and 0.38 ng/ml and 0.43 ng/ml and 0.14/ND ng/ml and 0.32 ng/ml and 0.22 ng/ml
Concentrations of PGE2 in rectal lumen (PGE2 [3]; clinical activity 0 (inactive)): 0.61(n=3) (0.47-2.2) ng/ml
Concentrations of PGE2 in rectal lumen (PGE2 [3]; clinical activity 1 (mild)): 9.4(n=5) (0.35-36) ng/ml
Concentrations of PGE2 in rectal lumen (PGE2 [3]; clinical activity 2-3 (moderate-severe)): 8.5(n=9) (0.32-52) ng/ml
Concentrations of PGE2 in rectal lumen (PGE2 [3]; endoscopic activity 0 (inactive)): 0.61(n=3) (0.47-22) ng/ml
Concentrations of PGE2 in rectal lumen (PGE2 [3]; endoscopic activity 1 (mild)): 3.2(n=3) (0.35-5.6) ng/ml
Concentrations of PGE2 in rectal lumen (PGE2 [3]; endoscopic activity 2 (moderate)): 8.2(n=8) (0.32-36) ng/ml
Concentrations of PGE2 in rectal lumen (PGE2 [3]; endoscopic activity 3 (severe)): 36(n=3) (8.9-52) ng/ml
patients allergic to SAZ or in other ways intolerant of the drug (ulcerative colitis): 10-20%
PGE2 concentrations (PGE2 [4]; SAZ group n=6, six months after randomisation): decreased toward control levels
Rectal PGE2 levels 6 months after R (PGE2 [4]; individual patients randomized to SAZ (tablets 0.5 g; 2 tablets b.i.d.) after raised PGE2, second figure of the cell): 0.64 ng/mL and 0.59 ng/mL and 2.11 ng/mL and 0.30 ng/mL and 0.26 ng/mL

Reference: EP0393104B1, “MEASUREMENT OF PGE 2 (PROSTAGLANDIN E 2) LEVELS IN PATIENTS WITH CHRONIC INFLAMMATORY BOWEL DISEASE” (priority 1987, dated 1989)
